Measurements as given in patent publication US9034922B2, “Composition for maintaining function of platelets” (THE UNIVERSITY OF TOKYO, priority 2010, dated 2015).

Tested on: human platelets in laser/hematoporphyrin-induced thrombus formation
Experiment: Thrombus formation model in NOG mice with biomolecular imaging (injected human platelets)
Format: in vivo, mouse
Conditions: Test Example 16; platelets prepared with 15 μM S-45457 and 100 μM CCCP, 37° C., 24 hours, injected into NOG mice
Procedure: The maintaining effect of the compound (such as S-45457) according to the present invention on the adhesion ability of platelets, particularly adhesion ability of platelets to a blood vessel in vivo, was evaluated using a biomolecular imaging technique and a thrombus formation model developed by the present inventors.
Note that the thrombus formation model used in this Test Example induces thrombus formation as follows. Specifically, reactive oxygen species (ROS) are generated locally in a blood vessel by using laser irradiation along with hematoporphyrin, and so forth. This gives damage to vascular endothelial cells, and thereby platelets adhere to the blood vessel, so that a thrombus is formed. […]
First, platelets were prepared for injection into mice used as a model of thrombus formation. […] After the incubation (in the case of the positive control, without incubation), the number of platelets in the precipitate was counted. […] The suspension was then incubated at room temperature for 15 minutes to label the platelets with fluorescence. […]
Next, the thrombus formation model mouse was prepared. […] Then, platelets labelled with fluorescence as described above were injected into the NOG mouse so that the number of the platelets was 15% of the number of circulating platelets. […]

## CC#CCOc1ccc(S(=O)(=O)CC(c2ccc(CNS(C)(=O)=O)cc2)N(O)C=O)cc1 (stereo not shown) [Compound I-4, N-{4-[2-(4-But-2-ynyloxybenzenesulfonyl)-1-(formylhydroxyamino)ethyl]benzyl}methanesulfonamide]
  percentage of the human-derived platelets contributing to the thrombus formation: higher than that of the negative control
